Test results published in patent US9221838B2, “Inhibitors of AKT activity” (ALMAC DISCOVERY LIMITED, priority 2009, dated 2015).

Tests used:
Type in all cases: biochemical
[1] = biological target: T1, AKT2 (Homo sapiens, UniProt P31751); experiment: AKT Kinase Assay (IMAP fluorescent polarisation) vs AKT2
T1 construct: purchased SignalChem
Procedure, shortened: (§1)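 Phosphorylation of FAM-Crosstide detected by IMAP binding and fluorescence polarisation (485/528 nm), with IC50 fitted from % inhibition versus vehicle. Compound was incubated 45 min with enzyme, then reacted 1 h at room temperature with ATP and peptide in Tris/MgCl2/DTT buffer. Dose response had fourteen half-log points.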

[2] = biological target: T2, AKT1 (Homo sapiens, UniProt P31749); experiment: AKT Kinase Assay (IMAP fluorescent polarisation) vs AKT1
T2 construct: purchased SignalChem
T2 sequence (P31749 whole entry): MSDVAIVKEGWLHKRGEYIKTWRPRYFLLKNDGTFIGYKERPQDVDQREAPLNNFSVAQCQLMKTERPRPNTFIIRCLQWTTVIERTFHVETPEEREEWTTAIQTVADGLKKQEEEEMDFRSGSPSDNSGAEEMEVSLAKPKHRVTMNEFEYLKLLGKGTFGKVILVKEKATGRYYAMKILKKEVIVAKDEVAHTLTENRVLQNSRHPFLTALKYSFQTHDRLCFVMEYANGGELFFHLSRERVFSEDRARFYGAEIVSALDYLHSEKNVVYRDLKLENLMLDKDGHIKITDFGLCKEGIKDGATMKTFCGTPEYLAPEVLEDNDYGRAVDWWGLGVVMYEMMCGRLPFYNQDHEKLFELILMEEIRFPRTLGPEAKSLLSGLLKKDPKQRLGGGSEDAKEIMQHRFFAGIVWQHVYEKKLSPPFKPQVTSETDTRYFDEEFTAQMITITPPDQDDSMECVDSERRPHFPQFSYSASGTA
Procedure, shortened: as §1

[3] = biological target: T3, AKT3 (Homo sapiens, UniProt Q9Y243); experiment: AKT Kinase Assay (IMAP fluorescent polarisation) vs AKT3
T3 construct: purchased SignalChem
T3 sequence (Q9Y243 whole entry): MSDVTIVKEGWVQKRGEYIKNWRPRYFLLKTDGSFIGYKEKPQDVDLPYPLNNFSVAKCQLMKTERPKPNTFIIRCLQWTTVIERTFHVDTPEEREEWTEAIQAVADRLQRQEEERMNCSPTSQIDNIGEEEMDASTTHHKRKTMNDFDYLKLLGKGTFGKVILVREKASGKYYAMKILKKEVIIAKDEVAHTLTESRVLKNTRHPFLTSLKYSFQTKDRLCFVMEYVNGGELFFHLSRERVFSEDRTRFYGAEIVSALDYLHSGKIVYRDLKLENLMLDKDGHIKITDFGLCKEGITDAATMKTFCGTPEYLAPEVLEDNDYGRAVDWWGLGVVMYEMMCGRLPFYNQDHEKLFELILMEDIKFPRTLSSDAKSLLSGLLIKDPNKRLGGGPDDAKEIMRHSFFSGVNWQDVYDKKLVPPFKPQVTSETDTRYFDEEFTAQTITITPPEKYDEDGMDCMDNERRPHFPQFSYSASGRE
Procedure, shortened: as §1

T1 sequence (P31751 whole entry): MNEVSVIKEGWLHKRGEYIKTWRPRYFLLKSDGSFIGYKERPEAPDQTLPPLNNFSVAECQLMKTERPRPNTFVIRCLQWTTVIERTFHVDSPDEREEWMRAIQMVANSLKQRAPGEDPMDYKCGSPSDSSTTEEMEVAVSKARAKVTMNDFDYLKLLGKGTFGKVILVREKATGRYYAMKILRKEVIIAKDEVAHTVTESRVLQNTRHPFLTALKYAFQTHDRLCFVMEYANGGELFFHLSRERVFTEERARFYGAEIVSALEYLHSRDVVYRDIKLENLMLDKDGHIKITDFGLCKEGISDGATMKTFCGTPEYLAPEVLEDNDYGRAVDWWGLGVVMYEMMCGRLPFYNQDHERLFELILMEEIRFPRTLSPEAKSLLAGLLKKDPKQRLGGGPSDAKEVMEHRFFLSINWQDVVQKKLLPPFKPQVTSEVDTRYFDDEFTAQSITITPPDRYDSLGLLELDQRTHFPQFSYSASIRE

Row | SMILES | IC50 [1] | IC50 [2] | IC50 [3]
1 | Cn1cc2c(n1)-c1cc(-c3ccccc3)c(-c3ccc(C4(N)CCC4)cc3)nc1CC2 [Example 5, 1-(4-(2-methyl-8-phenyl-4,5-dihydro-2H-pyrazolo[3,4-f]quinolin-7-yl)phenyl)cyclobutanamine] | 1 to 10 µM | 0.1 to 1 µM | > 10 µM
2 | CO/N=C1\CCCc2nc(-c3ccc(C4(N)CCC4)cc3)c(-c3ccccc3)cc21 [Example 3, 2-(4-(1-aminocyclobutyl)phenyl)-3-phenyl-7,8-dihydroquinolin-5(6H)-one O-methyl oxime] | > 10 µM | 1 to 10 µM | > 10 µM
3 | CCc1nnc2n1-c1cc(-c3ccccc3)c(-c3ccc([C@]4(N)C[C@](C)(O)C4)cc3)nc1OC2 [Example 138, (1r,3r)-3-amino-3-(4-(1-ethyl-8-phenyl-4H-pyrido[2,3-b][1,2,4]triazolo[4,3-d][1,4]oxazin-7-yl)phenyl)-1-methylcyclobutanol] | 0.1 to 1 µM | ≤ 0.1 µM | 1 to 10 µM
4 | CC1Oc2nc(-c3ccc(C4(N)CCC4)cc3)c(-c3ccccc3)cc2N(CC#N)C1=O (stereo not drawn) [Example 81, 2-(6-(4-(1-aminocyclobutyl)phenyl)-3-methyl-2-oxo-7-phenyl-2,3-dihydro-1H-pyrido[2,3-b][1,4]oxazin-1-yl)acetonitrile] | 0.1 to 1 µM | ≤ 0.1 µM | 1 to 10 µM
5 | CN1C(=O)COc2nc(-c3ccc([C@]4(N)C[C@](C)(O)C4)cc3)c(-c3ccccc3)cc21 [Example 113, 6-(4-((1r,3r)-1-amino-3-hydroxy-3-methylcyclobutyl)phenyl)-1-methyl-7-phenyl-1H-pyrido[2,3-b][1,4]oxazin-2(3H)-one] | 0.1 to 1 µM | ≤ 0.1 µM | 1 to 10 µM
6 | N[C@]1(c2ccc(-c3nc4c(cc3-c3ccccc3)N(CC(F)(F)F)C(=O)CO4)cc2)C[C@H](O)C1 [Example 148, 6-(4-((1s,3s)-1-amino-3-hydroxycyclobutyl)phenyl)-7-phenyl-1-(2,2,2-trifluoroethyl)-1H-pyrido[2,3-b][1,4]oxazin-2(3H)-one] | 0.1 to 1 µM | 0.1 to 1 µM | > 10 µM
7 | CN1C(=O)COc2nc(-c3ccc([C@]4(N)C[C@@H](O)C4)cc3)c(-c3ccccc3)cc21 [Example 97, 6-(4-((1s,3s)-1-amino-3-hydroxycyclobutyl)phenyl)-1-methyl-7-phenyl-1H-pyrido[2,3-b][1,4]oxazin-2(3H)-one] | 1 to 10 µM | 0.1 to 1 µM | 1 to 10 µM
8 | CN(C)CCN1CCc2nc(-c3ccc(C4(N)CCC4)cc3)c(-c3ccccc3)cc2C1=O [Example 25] | 1 to 10 µM | 0.1 to 1 µM | > 10 µM
9 | Cc1nc2c([nH]1)CCc1nc(-c3ccc(C4(N)CCC4)cc3)c(-c3ccccc3)cc1-2 [Example 15, 1-(4-(2-methyl-8-phenyl-4,5-dihydro-3H-imidazo[4,5-f]quinolin-7-yl)phenyl)cyclobutanamine] | 1 to 10 µM | 0.1 to 1 µM | 1 to 10 µM
10 | CCNC(=O)N1CCOc2nc(-c3ccc(C4(N)CCC4)cc3)c(-c3ccccc3)cc21 [Example 88, 6-(4-(1-aminocyclobutyl)phenyl)-N-ethyl-7-phenyl-2,3-dihydro-1H-pyrido[2,3-b][1,4]oxazine-1-carboxamide] | > 10 µM | > 10 µM | > 10 µM
11 | CN1C(=O)CCNc2nc(-c3ccc(C4(N)CCC4)cc3)c(-c3ccccc3)cc21 [Example 114, 7-(4-(1-aminocyclobutyl)phenyl)-1-methyl-8-phenyl-4,5-dihydro-1H-pyrido[2,3-b][1,4]diazepin-2(3H)-one] | 1 to 10 µM | 1 to 10 µM | > 10 µM
12 | Nc1ncc2c(n1)-c1cc(-c3ccccc3)c(-c3ccc(C4(N)CCC4)cc3)nc1CC2 [Example 17] | 1 to 10 µM | 0.1 to 1 µM | 1 to 10 µM
13 | CN1C(=O)COc2nc(-c3ccc([C@]4(N)C[C@H](O)C4)cc3)c(-c3ccccc3)cc21 [Example 137, 6-(4-((1r,3r)-1-amino-3-hydroxycyclobutyl)phenyl)-1-methyl-7-phenyl-1H-pyrido[2,3-b][1,4]oxazin-2(3H)-one] | 0.1 to 1 µM | ≤ 0.1 µM | 1 to 10 µM
14 | CC12CCc3nc(-c4ccc(C5(N)CCC5)cc4)c(-c4ccccc4)cc3C1=NNC2=O (stereo not drawn) [Example 8, 7-(4-(1-aminocyclobutyl)phenyl)-3a-methyl-8-phenyl-4,5-dihydro-2H-pyrazolo[3,4-f]quinolin-3(3aH)-one] | 0.1 to 1 µM | 0.1 to 1 µM | > 10 µM
15 | N#CCN1C(=O)COc2nc(-c3ccc(CN)cc3)c(-c3ccccc3)cc21 [Example 135, 2-(6-(4-(aminomethyl)phenyl)-2-oxo-7-phenyl-2,3-dihydro-1H-pyrido[2,3-b][1,4]oxazin-1-yl)acetonitrile] | ≤ 0.1 µM | 0.1 to 1 µM | 1 to 10 µM
16 | N#CCCCCN1C(=O)COc2nc(-c3ccc(C4(N)CCC4)cc3)c(-c3ccccc3)cc21 [Example 66, 5-(6-(4-(1-aminocyclobutyl)phenyl)-2-oxo-7-phenyl-2,3-dihydro-1H-pyrido[2,3-b][1,4]oxazin-1-yl)pentanenitrile] | 0.1 to 1 µM | 0.1 to 1 µM | 1 to 10 µM
17 | CCc1nnc2n1-c1cc(-c3ccccc3)c(-c3ccc(CN)cc3)nc1OC2 [Example 142, (4-(1-ethyl-8-phenyl-4H-pyrido[2,3-b][1,2,4]triazolo[4,3-d][1,4]oxazin-7-yl)phenyl)methanamine] | 1 to 10 µM | 1 to 10 µM | 1 to 10 µM
18 | NC1(c2ccc(-c3nc4c(cc3-c3ccccc3)-c3ncncc3CC4)cc2)CCC1 [Example 16, 1-(4-(9-phenyl-5,6-dihydropyrido[2,3-h]quinazolin-8-yl)phenyl)-cyclobutanamine] | 0.1 to 1 µM | ≤ 0.1 µM | 1 to 10 µM
19 | NC1(c2ccc(-c3nc4c(cc3-c3ccccc3)C(=O)CCC4)cc2)CCC1 [Example 1, 2-(4-(1-aminocyclobutyl)phenyl)-3-phenyl-7,8-dihydroquinolin-5(6H)-one] | 1 to 10 µM | 1 to 10 µM | > 10 µM
20 | CN1C(=O)COc2nc(-c3ccc(C4(N)CCC4)cc3)c(-c3ccc(F)cc3)cc21 [Example 132, 6-(4-(1-aminocyclobutyl)phenyl)-7-(4-fluorophenyl)-1-methyl-1H-pyrido[2,3-b][1,4]oxazin-2(3H)-one] | 1 to 10 µM | 0.1 to 1 µM | > 10 µM

The next lines start with the values.

Row | IC50 [1] | IC50 [2] | IC50 [3] | SMILES
21 | 0.1 to 1 µM | 1 to 10 µM | 1 to 10 µM | NC1(c2ccc(-c3nc4c(cc3-c3ccccc3)N(Cc3ncc[nH]3)C(=O)CO4)cc2)CCC1 [Example 42, 1-((1H-imidazol-2-yl)methyl)-6-(4-(1-aminocyclobutyl)phenyl)-7-phenyl-1H-pyrido[2,3-b][1,4]oxazin-2(3H)-one]
22 | 1 to 10 µM | 0.1 to 1 µM | 1 to 10 µM | COCCc1nnc2n1-c1cc(-c3ccccc3)c(-c3ccc(C4(N)CCC4)cc3)nc1OC2 [Example 121, 1-(4-(1-(2-methoxyethyl)-8-phenyl-4H-pyrido[2,3-b][1,2,4]triazolo[4,3-d][1,4]oxazin-7-yl)phenyl)cyclobutanamine]
23 | 0.1 to 1 µM | ≤ 0.1 µM | 0.1 to 1 µM | NC1(c2ccc(-c3nc4c(cc3-c3ccccc3)-n3c(CF)nnc3CO4)cc2)CCC1 [Example 120, 1-(4-(1-(fluoromethyl)-8-phenyl-4H-pyrido[2,3-b][1,2,4]triazolo[4,3-d][1,4]oxazin-7-yl)phenyl)cyclobutanamine]
24 | ≤ 0.1 µM | 0.1 to 1 µM | 1 to 10 µM | NC1(c2ccc(-c3nc4c(cc3-c3ccccc3)N(CC(F)(F)F)C(=O)CO4)cc2)CCC1 [Example 60, 6-(4-(1-aminocyclobutyl)phenyl)-7-phenyl-1-(2,2,2-trifluoroethyl)-1H-pyrido[2,3-b][1,4]oxazin-2(3H)-one]
25 | 1 to 10 µM | ≤ 0.1 µM | 1 to 10 µM | NC1(c2ccc(-c3nc4c(cc3-c3ccccc3)-n3c(CO)nnc3CO4)cc2)CCC1 [Example 107]
26 | ≤ 0.1 µM | 0.1 to 1 µM | 0.1 to 1 µM | NC1(c2ccc(-c3nc4c(cc3-c3ccccc3)N(CC(F)F)C(=O)CO4)cc2)CCC1 [Example 85, 6-(4-(1-aminocyclobutyl)phenyl)-1-(2,2-difluoroethyl)-7-phenyl-1H-pyrido[2,3-b][1,4]oxazin-2(3H)-one]
27 | 1 to 10 µM | 0.1 to 1 µM | > 10 µM | C[C@H]1Oc2nc(-c3ccc(C4(N)CCC4)cc3)c(-c3ccccc3)cc2N(C)C1=O [Example 94, (R)-6-(4-(1-aminocyclobutyl)phenyl)-1,3-dimethyl-7phenyl-1H-pyrido[2,3-b][1,4]oxazin-2(3H)-one]
28 | 0.1 to 1 µM | 0.1 to 1 µM | 1 to 10 µM | N#CCn1nc2n(c1=O)-c1cc(-c3ccccc3)c(-c3ccc(C4(N)CCC4)cc3)nc1OC2 [Example 101, 2-(7-(4-(1-aminocyclobutyl)phenyl)-1-oxo-8-phenyl-1H-pyrido[2,3-b][1,2,4]triazolo[4,3-d][1,4]oxazin-2(4H)-yl)acetonitrile]
29 | ≤ 0.1 µM | 0.1 to 1 µM | 0.1 to 1 µM | NC1(c2ccc(-c3nc4c(cc3-c3ccccc3)N(CC3CCC3)C(=O)CO4)cc2)CCC1 [Example 48, 6-(4-(1-aminocyclobutyl)phenyl)-1-(cyclobutylmethyl)-7-phenyl-1H-pyrido[2,3-b][1,4]oxazin-2(3H)-one]
30 | 0.1 to 1 µM | 0.1 to 1 µM | 1 to 10 µM | NC1(c2ccc(-c3nc4c(cc3-c3ccccc3)-n3c(n[nH]c3=O)CO4)cc2)CCC1 [Example 38, 7-(4-(1-aminocyclobutyl)phenyl)-8-phenyl-2,4-dihydro-1H-pyrido[2,3-b][1,2,4]triazolo[4,3-d][1,4]oxazin-1-one]
31 | 1 to 10 µM | 0.1 to 1 µM | > 10 µM | CN1C(=O)COc2nc(-c3ccc(C4(N)CC4)cc3)c(-c3ccccc3)cc21 [Example 149, 6-(4-(1-aminocyclopropyl)phenyl)-1-methyl-7-phenyl-1H-pyrido[2,3-b][1,4]oxazin-2(3H)-one]
